The source of these data is US20040242572A1 (Boehringer Ingelheim International GmbH, priority 2002, published 2004).

Molecules are shown by their SMILES.

Data set [1] addresses T1, hMCH-1R (Homo sapiens, UniProt Q99705).
T1 construct: expressed in transfected cells; host or cells: CHO/Galpha16 cells, stably transfected; membrane preparation
The data set is described as follows: MCH-1 receptor binding test (125I-MCH binding to membranes of hMCH-1R transfected CHO/Galpha16 cells). The following applies: 100 pM 125I-MCH, membranes of CHO/Galpha16 cells with hMCH-1R. How it is done: Membranes from CHO/Galpha16 cells stably transfected with human hMCH-1R are resuspended using a syringe (needle 0.6×25 mm) and diluted in test buffer (50 mM HEPES, 10 mM MgCl2, 2 mM EGTA, pH 7.00; 0.1% bovine serum albumin (protease-free), 0.021% bacitracin, 1 μg/ml aprotinin, 1 μg/ml leupeptin and 1 μM phosphoramidone) to a concentration of 5 to 15 μg/ml. […] After the incubation the reaction is filtered using a cell harvester through 0.5% PEI treated glass fibre filters (GF/B, Unifilter Packard). The membrane-bound radioactivity retained on the filter is then determined after the addition of scintillator substance (Packard Microscint 20) in a measuring device (TopCount of Packard).
The non-specific binding is defined as bound radioactivity in the presence of 1 micromolar MCH during the incubation period.
The analysis of the concentration binding curve is carried out on the assumption of one receptor binding site.

T1 sequence (Q99705 whole entry): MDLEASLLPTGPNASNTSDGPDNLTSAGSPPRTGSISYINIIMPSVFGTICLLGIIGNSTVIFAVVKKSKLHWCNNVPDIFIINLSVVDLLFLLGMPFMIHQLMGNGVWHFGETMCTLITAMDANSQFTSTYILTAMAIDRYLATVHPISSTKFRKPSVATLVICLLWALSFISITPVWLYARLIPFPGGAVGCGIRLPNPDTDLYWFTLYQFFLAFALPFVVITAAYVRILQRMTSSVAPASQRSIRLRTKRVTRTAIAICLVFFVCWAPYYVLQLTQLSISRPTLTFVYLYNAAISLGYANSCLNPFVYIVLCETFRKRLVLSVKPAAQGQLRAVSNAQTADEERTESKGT

For `O=c1c2ccc(-c3ccc(Cl)cc3)cc2nnn1CCc1ccc(CN2CCCC2)cc1` [Example 1.18, 7-(4-chloro-phenyl)-3-[2-(4-pyrrolidin-1-ylmethyl-phenyl)-ethyl]-3H-benzo[d][1,2,3]triazin-4-one], the melting point (usually the temperature, or range, at which the solid turns liquid) lay within 151 to 152 °C.
In turn, `O=c1c2ccc(-c3ccc(Cl)cc3)cc2ncn1CCc1ccc(CN2CCCCC2)cc1` [Example 1.15, 7-(4-chloro-phenyl)-3-[2-(4-piperidin-1-ylmethyl-phenyl)-ethyl]-3H-quinazolin-4-one] registered a melting point of 169 to 170 °C.
On the same count and under the same terms, for `Cc1ccc(-c2ccc3c(=O)n(CCc4ccc(CN5CCCC5)cc4)cnc3c2)cc1` [Example 1.2, 3-[2-(4-Pyrrolidin-1-ylmethyl-phenyl)-ethyl]-7-p-tolyl-3H-quinazolin-4-one] the value was 157 to 158 °C; for `O=c1c2ccc(-c3ccc(Cl)cc3)cc2ncn1CCc1ccc(CN2CCC3(CCCCC3)CC2)cc1` [Example 1.25, 7-(4-chloro-phenyl)-3-{2-[4-(3-Aza-spiro[5.5]undec-3-ylmethyl)-phenyl]-ethyl}-3H-quinazolin-4-one], 184 to 185 °C; for `CN1CCN(c2ccc(CCn3cnc4cc(-c5ccc(Cl)cc5)ccc4c3=O)cn2)CC1` [Example 1.17, 7-(4-chloro-phenyl)-3-{2-[6-(4-methyl-piperazin-1-yl)-pyridin-3-yl]-ethyl}-3H-quinazolin-4-one], 263 to 264 °C.
As for `O=c1c2ccc(-c3ccc(Cl)c(Cl)c3)cc2ncn1CCc1ccc(CN2CCCC2)cc1` [Example 1.5, 7-(3,4-dichloro-phenyl)-3-[2-(4-pyrrolidin-1-ylmethyl-phenyl)-ethyl]-3H-quinazolin-4-one], the melting point is 148 to 149 °C.
Consider `O=c1c2ccc(-c3ccc(C(F)(F)F)cc3)cc2ncn1CCc1ccc(CN2CCCC2)cc1` [Example 1.3, 3-[2-(4-pyrrolidin-1-ylmethyl-phenyl)-ethyl]-7-(4-trifluormethyl-phenyl)-3H-quinazolin-4-one], for which the melting point is 179 to 181 °C.
Still for that read-out and setting: for `CCc1ccc(-c2ccc3c(=O)n(CCc4ccc(CN5CCCC5)cc4)cnc3c2)cc1` [Example 1.8, 7-(4-Ethyl-phenyl)-3-[2-(4-pyrrolidin-1-ylmethyl-phenyl)-ethyl]-3H-quinazolin-4-one] the value was 165 to 166 °C; for `O=c1c2ccc(-c3ccc(Cl)cc3)cc2ncn1CCc1ccc(CN2CC=C(c3ccccc3)CC2)cc1` [Example 1.24, 7-(4-chloro-phenyl)-3-{2-[4-(4-phenyl-3.6-dihydro-2H-piperidin-1-ylmethyl)-phenyl]-ethyl}-3H-quinazolin-4-one], 166 to 167 °C; for `O=c1c2ccc(-c3ccc(Cl)cc3)cc2nnn1CCc1ccc(CN2CCC(O)(c3ccccc3)CC2)cc1`, 265 to 266 °C.
For the compound `O=c1[nH]c2cc(-c3ccc(Cl)cc3)ccc2c(=O)n1CCc1ccc(CN2CCCC2)cc1` [Example 1.12, 7-(4-chloro-phenyl)-3-[2-(4-pyrrolidin-1-ylmethyl-phenyl)-ethyl]-1H-quinazolin-2,4-dione], the melting point was in the range of 274 to 276 °C.
The same measure, in the same setting: in the case of `O=c1c2ccc(-c3ccc(Cl)cc3)cc2ncn1CCc1ccc(CN2CCC(Oc3ccccn3)CC2)cc1` [Example 1.26, 7-(4-chloro-phenyl)-3-(2-{4-[4-(pyridin-2-yloxy)-piperidin-1-ylmethyl]-phenyl}-ethyl)-3H-quinazolin-4-one] it was 154 to 158 °C.
The compound `CN1CCN(C(=O)c2ccc(CCNC(=O)c3ccc(-c4ccc(Cl)cc4)cc3)cc2)CC1` [Example 2.51, 4′-chloro-biphenyl-4-carboxylic acid-{2-[4-(4-methyl-piperazine-1-carbonyl)-phenyl]-ethyl}-amide] had a melting point of 217 to 218 °C.
Still for that read-out and setting: in the case of `O=c1c2ccc(-c3ccc(Cl)cc3)cc2ncn1CCc1ccc(CN2CCCC2)cc1` [Example 1.1, 7-(4-chloro-phenyl)-3-[2-(4-pyrrolidin-1-ylmethyl-phenyl)-ethyl]-3H-quinazolin-4-one] it was 178 to 179 °C; in that of `COc1ccc(-c2ccc3c(=O)n(CCc4ccc(CN5CCCC5)cc4)cnc3c2)cc1` [Example 1.4, 7-(4-Methoxy-phenyl)-3-[2-(4-pyrrolidin-1-ylmethyl-phenyl)-ethyl]-3H-quinazolin-4-one], 143 to 144 °C.
In the case of `CN(C)Cc1ccc(CCn2cnc3cc(-c4ccc(Cl)cc4)ccc3c2=O)cc1` [Example 1.14, 7-(4-chloro-phenyl)-3-[2-(4-dimethylaminomethyl-phenyl)-ethyl]-3H-quinazolin-4-one], the melting point was found to be 183 °C. Besides, the IC50 – broadly, the concentration at which inhibition is half-maximal – in data set [1] was 2.1 nM.
In the case of `O=c1c2ccc(-c3ccc(Cl)cc3)cc2ccn1CCc1ccc(CN2CCCC2)cc1` [Example 1.31, 6-(4-chloro-phenyl)-2-[2-(4-pyrrolidin-1-ylmethyl-phenyl)-ethyl]-2H-isoquinolin-1-one], the melting point fell in the range of 136 to 137 °C.
As to `CCN(CC)Cc1ccc(CCNC(=O)c2ccc(-c3ccc(OC)cc3)cc2)cc1` [Example 2.4, 4′-methoxy-biphenyl-4-carboxylic acid-[2-(4-diethylaminomethyl-phenyl)-ethyl]-amide], the IC50 in data set [1] worked out at 3.5 nM.
Turning to `O=c1c2ccc(-c3ccc(Cl)cc3)cc2ncn1CCc1ccc(CN2CCC(Nc3ccccn3)CC2)cc1` [Example 1.27, 7-(4-chloro-phenyl)-3-(2-{4-[4-(pyridin-2-ylamino)-piperidin-1-ylmethyl]-phenyl}-ethyl)-3H-quinazolin-4-one], the melting point lay within 164 to 166 °C.
The same measure, in the same setting: for `O=c1c2ccc(-c3ccc(Cl)cc3)cc2ncn1CCc1ccc(CN2CCOCC2)cc1` [Example 1.16, 7-(4-chloro-phenyl)-3-[2-(4-morpholin-4-ylmethyl-phenyl)-ethyl]-3H-quinazolin-4-one] the value was 169 to 170 °C; for `Cc1nc2cc(-c3ccc(Cl)cc3)ccc2c(=O)n1CCc1ccc(CN2CCCC2)cc1` [Example 1.11, 7-(4-chloro-phenyl)-2-methyl-3-[2-(4-pyrrolidin-1-ylmethyl-phenyl)-ethyl]-3H-quinazolin-4-one], 160 to 163 °C.
As to `O=c1c2ccc(-c3ccc(Cl)cc3)cc2nnn1CCc1ccc(CN2CCC3(CCCCC3)CC2)cc1` [Example 1.30, 7-(4-chloro-phenyl)-3-{2-[4-(3-aza-spiro[5.5]undec-3-ylmethyl)-phenyl]-ethyl}-3H-benzo[d][1,2,3]triazin-4-one], the melting point was 165 to 166 °C.
The same measure, in the same setting: for `O=c1c2ccc(-c3ccc(Cl)cc3)cc2ncn1CCc1ccc(CN2CCN(c3ccccc3)CC2)cc1` [Example 1.22, 7-(4-chloro-phenyl)-3-{2-[4-(4-phenyl-piperazin-1-ylmethyl)-phenyl]-ethyl}-3H-quinazolin-4-one] the value was 199 to 200 °C; for `O=c1c2ccc(-c3ccc(Cl)cc3)cc2ncn1CCc1ccc(CN2CCC(c3ccccc3)CC2)cc1` [Example 1.21, 7-(4-chloro-phenyl)-3-{2-[4-(4-phenyl-piperidin-1-ylmethyl)-phenyl]-ethyl}-3H-quinazolin-4-one], 178 to 179 °C.
On the same count and under the same terms, in the case of `O=c1c2ccc(-c3ccc(Cl)cc3)cc2nnn1CCc1ccc(CN2CCC(c3ccccc3)CC2)cc1` [Example 1.28, 7-(4-chloro-phenyl)-3-{2-[4-(4-phenyl-piperidin-1-ylmethyl)-phenyl]-ethyl}-3H-benzo[d][1,2,3]triazin-4-one] it was 183 to 184 °C.
As for `COC[C@@H]1CCCN1Cc1ccc(CCn2cnc3cc(-c4ccc(Cl)cc4)ccc3c2=O)cc1` [Example 1.13, 7-(4-chloro-phenyl)-3-{2-[4-((S)-2-methoxymethyl-pyrrolidin-1-ylmethyl)-phenyl]-ethyl}-3H-quinazolin-4-one], the melting point lay in the range of 133 to 135 °C.
`CN1CCN(c2ccc(CCNC(=O)c3ccc(-c4ccc(Cl)cc4)cc3)cn2)CC1` [Example 2.50, 4′-chloro-biphenyl-4-carboxylic acid-{2-[6-(4-methyl-piperazin-1-yl)-pyridin-3-yl]-ethyl}-amide] had a melting point of 211 to 213 °C.
In the case of `O=c1c2ccc(-c3ccc(Cl)cc3)cc2nnn1Cc1ccc(CN2CCCC2)cc1` [Example 1.19, 7-(4-chloro-phenyl)-3-(4-pyrrolidin-1-ylmethyl-benzyl)-3H-benzo[d][1,2,3]triazin-4-one], the melting point lay in the range of 147 to 148 °C.
`O=c1c2ccc(-c3ccc(F)cc3)cc2ncn1CCc1ccc(CN2CCCC2)cc1` [Example 1.7, 7-(4-fluoro-phenyl)-3-[2-(4-pyrrolidin-1-ylmethyl-phenyl)-ethyl]-3H-quinazolin-4-one] came in with a melting point of 160 to 161 °C.
`Cc1ccc(C2CCN(C(=O)NCCc3ccc(CN4CCCC4)cc3)CC2)cc1` [Example 2.12, 4-methylphenyl-piperidine-1-carboxylic acid-[2-(4-pyrrolidin-1-ylmethyl-phenyl)-ethyl]-amide] returned an IC50 in data set [1] of 30.5 nM.
Regarding `O=c1c2ccc(-c3ccc(Cl)cc3)cc2ncn1CCc1ccc(CN2CCC(O)(c3ccccc3)CC2)cc1`, the melting point fell in the range of 204 to 205 °C.
